24 compounds from patent US20250345446A1 (Draupnir Bio ApS, priority 2022, published 2025) can be followed below.

Each structure is given as a SMILES string.

T1 sequence (Q99523 with tags, fused parts or gaps V650M): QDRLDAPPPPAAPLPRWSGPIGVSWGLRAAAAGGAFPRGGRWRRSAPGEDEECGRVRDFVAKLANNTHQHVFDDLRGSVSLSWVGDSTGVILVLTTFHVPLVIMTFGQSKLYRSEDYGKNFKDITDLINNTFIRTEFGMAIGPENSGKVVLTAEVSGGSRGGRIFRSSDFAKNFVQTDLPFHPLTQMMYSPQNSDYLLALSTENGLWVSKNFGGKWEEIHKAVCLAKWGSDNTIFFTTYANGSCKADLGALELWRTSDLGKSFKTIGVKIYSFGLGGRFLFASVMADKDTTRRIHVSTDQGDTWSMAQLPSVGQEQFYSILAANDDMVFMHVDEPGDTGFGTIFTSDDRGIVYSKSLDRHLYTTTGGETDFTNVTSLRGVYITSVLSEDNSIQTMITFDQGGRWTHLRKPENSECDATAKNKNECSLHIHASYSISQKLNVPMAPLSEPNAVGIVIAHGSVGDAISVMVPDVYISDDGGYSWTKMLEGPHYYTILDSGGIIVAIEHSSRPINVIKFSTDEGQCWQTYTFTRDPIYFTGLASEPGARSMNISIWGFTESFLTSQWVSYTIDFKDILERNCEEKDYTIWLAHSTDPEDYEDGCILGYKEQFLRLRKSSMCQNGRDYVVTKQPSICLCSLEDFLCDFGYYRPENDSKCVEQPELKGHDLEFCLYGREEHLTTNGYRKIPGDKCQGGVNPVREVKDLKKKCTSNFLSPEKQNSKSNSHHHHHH

The test has as its target T1, soluble ectodomain of sortilin-6his (Homo sapiens, UniProt Q99523, V650M).
T1 construct: the soluble ectodomain of sortilin-6his is measured by microscale thermophoresis (MST)
Kind of test: MST binding to soluble ectodomain of sortilin-6his. The following applies: Table 4; small molecule bifunctional compounds; MST; read-out: KD score, binding to sortilin (Kd). The method, then: At this point the plate was sealed with adhesive strip and placed on an Eppendorf thermomixer to shake at 600 rpm for 3 min before spinning on a Fisherbrand plate-spinner for 15 seconds and further incubation 1 hrs at 19° C. MST was measured on a Monolith NT. Automated (Nanotemper) in standard-treated capillaries at 5% LED-power and high MST-power. Dose-response was extracted from the raw thermographs at 20 sec hot-time and the dissociation constant was estimated by sigmoidal curve fitting in MO. Affinity analysis program (Nanotemper). All experiments were run in duplicates.
On to `C[C@@H]1CN(c2ncc(-c3ccc4c(n3)N(Cc3cccnc3C#N)C(C)(C)C4=O)cn2)CCN1C(=O)CNC(=O)COCCOCCCCCCNC(=O)c1cccc(Oc2ccc(C(=O)N[C@@H](CCC(C)(C)C)C(=O)O)cn2)c1`, for which the Kd (usually the constant that tells how readily two partners part at equilibrium) is 1 to 10 nM. As to `CC(C)(C)CC[C@H](NC(=O)c1ccc(Oc2cccc(C(=O)NCCOCCOCCNc3ccc([N+](=O)[O-])cc3[N+](=O)[O-])c2)nc1)C(=O)O` [BF001, (2S)-2-[[6-[3-[2-[2-[2-(2,4-dinitroanilino)ethoxy]ethoxy]ethylcarbamoyl]phenoxy]pyridine-3-carbonyl]amino]-5,5-dimethyl-hexanoic acid], the Kd was in the range of 1 to 10 nM. Then `CC(C)(C)CC[C@H](NC(=O)c1ccc(Oc2cccc(C(=O)NCCOCCOCCOCCNc3ccc([N+](=O)[O-])cc3[N+](=O)[O-])c2)nc1)C(=O)O` [BF002, (2S)-2-[[6-[3-[2-[2-[2-[2-(2,4-dinitroanilino)ethoxy]ethoxy]ethoxy]ethyl-carbamoyl]phenoxy]pyridine-3-carbonyl]amino]-5,5-dimethyl-hexanoic acid], with 1 to 10 nM.

Turning to `CC(C)(C)CC[C@H](NC(=O)c1ccc(Oc2cccc(C(=O)NCCOCCOCCOCCOCCNc3ccc([N+](=O)[O-])cc3[N+](=O)[O-])c2)nc1)C(=O)O` [BF003, (2S)-2-[[6-[3-[2-[2-[2-[2-[2-(2,4-dinitroanilino)ethoxy]ethoxy]ethoxy]ethoxy]ethylcarbamoyl]phenoxy]pyridine-3-carbonyl]amino]-5,5-dimethyl-hexanoic acid], the Kd fell in the range of 1 to 10 nM.

On to `CC(C)(C)CC[C@H](NC(=O)c1ccc(Oc2cccc(OCCOCCOCCOCCNc3ccc([N+](=O)[O-])cc3[N+](=O)[O-])c2)nc1)C(=O)O` [BF007, (2S)-2-[[6-[3-[2-[2-[2-[2-(2,4-dinitroanilino)ethoxy]ethoxy]ethoxy]ethoxy]phenoxy]pyridine-3-carbonyl]amino]-5,5-dimethyl-hexanoic acid], for which the Kd lay in the range of 1 to 10 nM. For `CC(C)(C)CC[C@H](NC(=O)c1ccc(Oc2cccc3c(C(=O)NCCCNC(=O)CCOCCOCCNc4ccc([N+](=O)[O-])cc4[N+](=O)[O-])cccc23)nc1)C(=O)O` [BF009], the Kd lay within 1 to 10 nM. In the case of `CC(C)(C)CC[C@H](NC(=O)c1ccc(Oc2cccc(OCCOCCOCCOCCOCCOCCOCCOCCNc3ccc([N+](=O)[O-])cc3[N+](=O)[O-])c2)nc1)C(=O)O` [BF012, (2S)-2-[[6-[3-[2-[2-[2-[2-[2-[2-[2-[2-(2,4-dinitroanilino)ethoxy]ethoxy]ethoxy]ethoxy]ethoxy]ethoxy]ethoxy]ethoxy]phenoxy]pyridine-3-carbonyl]amino]-5,5-dimethyl-hexanoic acid], the Kd was 1 to 10 nM. For the compound `CC(C)(C)CC[C@H](NC(=O)c1ccc(Oc2cccc(C(=O)NCCOCCOCCOCCNc3ncc(-c4ccc5c(n4)N(Cc4cccnc4C#N)C(C)(C)C5=O)cn3)c2)nc1)C(=O)O` [BF030, (2S)-2-[[6-[3-[2-[2-[2-[2-[[5-[1-[(2-cyano-3-pyridyl)methyl]-2,2-dimethyl-3-oxo-pyrrolo[2,3-b]pyridin-6-yl]pyrimidin-2-yl]amino]ethoxy]ethoxy]ethoxy]ethylcarbamoyl]phenoxy]pyridine-3-carbonyl]amino]-5,5-dimethyl-hexanoic acid], the Kd was less than 1 nM.

Turning to `C[C@@H]1CN(c2ncc(-c3ccc4c(n3)N(Cc3cccnc3C#N)C(C)(C)C4=O)cn2)CCN1C(=O)COCCOCCOCCOCCNC(=O)c1cccc(Oc2ccc(C(=O)N[C@@H](CCC(C)(C)C)C(=O)O)cn2)c1` [BF031, (2S)-2-[[6-[3-[2-[2-[2-[2-[2-[(2R)-4-[5-[1-[(2-cyano-3-pyridyl)methyl]-2,2-dimethyl-3-oxo-pyrrolo[2,3-b]pyridin-6-yl]pyrimidin-2-yl]-2-methyl-piperazin-1-yl]-2-oxo-ethoxy]ethoxy]ethoxy]ethoxy]ethylcarbamoyl]phenoxy]pyridine-3-carbonyl]amino]-5,5-dimethyl-hexanoic acid], the Kd was in the range of 10 to 250 nM.

On to `CC(C)(C)CC[C@H](NC(=O)c1ccc(Oc2cccc(C(=O)NCCOCCOCCOCc3ccc(-c4cccc5ccncc45)c(OCCc4ccc(-c5cccc6ccncc56)cc4)c3)c2)nc1)C(=O)O` [BF033, (2S)-2-[[6-[3-[2-[2-[2-[[4-(8-isoquinolyl)-3-[2-[4-(8-isoquinolyl)phenyl]ethoxy]phenyl]methoxy]ethoxy]ethoxy]ethylcarbamoyl]phenoxy]pyridine-3-carbonyl]amino]-5,5-dimethyl-hexanoic acid], for which the Kd was less than 1 nM. For `CC(C)(C)CC[C@H](NC(=O)c1ccc(Oc2cccc(C(=O)NCCOCCOCCOCCOCc3ccc(-c4cccc5ccncc45)c(OCCc4ccc(-c5cccc6ccncc56)cc4)c3)c2)nc1)C(=O)O` [BF035, (2S)-2-[[6-[3-[2-[2-[2-[2-[[4-(8-isoquinolyl)-3-[2-[4-(8-isoquinolyl)phenyl]ethoxy]phenyl]methoxy]ethoxy]ethoxy]ethoxy]ethylcarbamoyl]phenoxy]pyridine-3-carbonyl]amino]-5,5-dimethyl-hexanoic acid], the Kd lay in the range of 1 to 10 nM.

As for `C[C@@H]1CN(c2ncc(-c3ccc4c(n3)N(Cc3cccnc3C#N)C(C)(C)C4=O)cn2)CCN1C(=O)COCCCCCCNC(=O)COc1cccc(Oc2ccc(C(=O)N[C@@H](CCC(C)(C)C)C(=O)O)cn2)c1` [BF036], the Kd was in the range of 1 to 10 nM. As for `CC(C)(C)CC[C@H](NC(=O)c1ccc(Oc2cccc(C(=O)NCCOCCOCCOCCOCCOCc3ccc(-c4cccc5ccncc45)c(OCCc4ccc(-c5cccc6ccncc56)cc4)c3)c2)nc1)C(=O)O` [BF037, (2S)-2-[[6-[3-[2-[2-[2-[2-[2-[[4-(8-isoquinolyl)-3-[2-[4-(8-isoquinolyl)phenyl]ethoxy]phenyl]methoxy]ethoxy]ethoxy]ethoxy]ethoxy]ethylcarbamoyl]phenoxy]pyridine-3-carbonyl]amino]-5,5-dimethyl-hexanoic acid], the Kd was less than 1 nM. In the case of `C[C@@H]1CN(c2ncc(-c3ccc4c(n3)N(Cc3cccnc3C#N)C(C)(C)C4=O)cn2)CCN1C(=O)COCCCCCCCCNc1cccc(Oc2ccc(C(=O)N[C@@H](CCC(C)(C)C)C(=O)O)cn2)c1` [BF038], the Kd was more than 250 nM.

`C[C@@H]1CN(c2ncc(-c3ccc4c(n3)N(Cc3cccnc3C#N)C(C)(C)C4=O)cn2)CCN1C(=O)COCCCCCCNc1cccc(Oc2ccc(C(=O)N[C@@H](CCC(C)(C)C)C(=O)O)cn2)c1` [BF039]: the Kd fell in the range of 1 to 10 nM. In the case of `C[C@@H]1CN(c2ncc(-c3ccc4c(n3)N(Cc3cccnc3C#N)C(C)(C)C4=O)cn2)CCN1C(=O)COCCCCCCCCNC(=O)c1cccc(Oc2ccc(C(=O)N[C@@H](CCC(C)(C)C)C(=O)O)cn2)c1` [BF041], the Kd was less than 1 nM. On to `CC(C)(C)CC[C@H](NC(=O)c1ccc(Oc2cccc(C(=O)NCCOCCOCCOCCOCCOCCOCc3ccc(-c4cccc5ccncc45)c(OCCc4ccc(-c5cccc6ccncc56)cc4)c3)c2)nc1)C(=O)O` [BF044, (2S)-2-[[6-[3-[2-[2-[2-[2-[2-[2-[[4-(8-isoquinolyl)-3-[2-[4-(8-isoquinolyl)phenyl]ethoxy]phenyl]methoxy]ethoxy]ethoxy]ethoxy]ethoxy]ethoxy]ethylcarbamoyl]phenoxy]pyridine-3-carbonyl]amino]-5,5-dimethyl-hexanoic acid], for which the Kd was 10 to 250 nM. For `C[C@@H]1CN(c2ncc(-c3ccc4c(n3)N(Cc3cccnc3C#N)C(C)(C)C4=O)cn2)CCN1C(=O)COCCCCNC(=O)c1cccc(Oc2ccc(C(=O)N[C@@H](CCC(C)(C)C)C(=O)O)cn2)c1` [BF045], the Kd fell in the range of 1 to 10 nM. Regarding `C[C@@H]1CN(c2ncc(-c3ccc4c(n3)N(Cc3cccnc3C#N)C(C)(C)C4=O)cn2)CCN1C(=O)COCCCCNc1cccc(Oc2ccc(C(=O)N[C@@H](CCC(C)(C)C)C(=O)O)cn2)c1` [BF046], the Kd was less than 1 nM.

In the case of `C[C@@H]1CN(c2ncc(-c3ccc4c(n3)N(Cc3cccnc3C#N)C(C)(C)C4=O)cn2)CCN1C(=O)COCCNc1cccc(Oc2ccc(C(=O)N[C@@H](CCC(C)(C)C)C(=O)O)cn2)c1` [BF047, (S)-2-(6-(3-((2-(2-((R)-4-(5-(1-((2-cyanopyridin-3-yl)methyl)-2,2-dimethyl-3-oxo-2,3-dihydro-1H-pyrrolo[2,3-b]pyridin-6-yl)pyrimidin-2-yl)-2-methylpiperazin-1-yl)-2-oxoethoxy)ethyl)amino)phenoxy)nicotinamido)-5,5-dimethylhexanoic acid], the Kd lay within 1 to 10 nM.

In the case of `C[C@@H]1CN(c2ncc(-c3ccc4c(n3)N(Cc3cccnc3C#N)C(C)(C)C4=O)cn2)CCN1C(=O)COCCCCNC(=O)COc1cccc(Oc2ccc(C(=O)N[C@@H](CCC(C)(C)C)C(=O)O)cn2)c1` [BF048], the Kd fell in the range of 1 to 10 nM. `CC(C)(C)CC[C@H](NC(=O)c1ccc(Oc2cccc(C(=O)NCCOCCOCCNc3ncc(-c4ccc5c(n4)N(Cc4cccnc4C#N)C(C)(C)C5=O)cn3)c2)nc1)C(=O)O` [BF049, (2S)-2-[[6-[3-[2-[2-[2-[[5-[1-[(2-cyano-3-pyridyl)methyl]-2,2-dimethyl-3-oxo-pyrrolo[2,3-b]pyridin-6-yl]pyrimidin-2-yl]amino]ethoxy]ethoxy]ethylcarbamoyl]phenoxy]pyridine-3-carbonyl]amino]-5,5-dimethyl-hexanoic acid]: the dissociation constant (Kd) lay within 1 to 10 nM. Regarding `C[C@@H]1CN(c2ncc(-c3ccc4c(n3)N(Cc3cccnc3C#N)C(C)(C)C4=O)cn2)CCN1C(=O)COCCOCCNC(=O)c1cccc(Oc2ccc(C(=O)N[C@@H](CCC(C)(C)C)C(=O)O)cn2)c1` [BF051, (2S)-2-[[6-[3-[2-[2-[2-[(2R)-4-[5-[1-[(2-cyano-3-pyridyl)methyl]-2,2-dimethyl-3-oxo-pyrrolo[2,3-b]pyridin-6-yl]pyrimidin-2-yl]-2-methyl-piperazin-1-yl]-2-oxo-ethoxy]ethoxy]ethylcarbamoyl]phenoxy]pyridine-3-carbonyl]amino]-5,5-dimethyl-hexanoic acid], the Kd is 1 to 10 nM. `CC(C)(C)CC[C@H](NC(=O)c1ccc(Oc2cccc(C(=O)NCCOCCOCCOCCOCCOc3ncc(-c4ccc5c(n4)N(Cc4cccnc4C#N)C(C)(C)C5=O)cn3)c2)nc1)C(=O)O` [BF052]: the equilibrium dissociation constant (Kd) lay in the range of 1 to 10 nM.
